# Assay results reported in paper PMC5218480 (PLoS ONE, 2017).
# Test system: MV-4-11 cells
# Assay: Gene expression microarray analysis (Affymetrix PrimeView) and GSEA
# Type: cell-based, human
# Parameters: RFU PODN (11730768_x_at) / Fold change /veh PODN (11730768_x_at) / RFU LINC00158 (11744669_a_at) / Fold change /veh LINC00158 (11744669_a_at) / RFU DUSP10 (11751237_a_at) / Fold change /veh DUSP10 (11751237_a_at) / RFU ID3 (11757404_x_at) / Fold change /veh ID3 (11757404_x_at) / RFU PLEKHG5 (11737974_s_at) / Fold change /veh PLEKHG5 (11737974_s_at) / RFU LRRC4B (11730491_at) / Fold change /veh LRRC4B (11730491_at) / RFU GIMAP4 (11747438_a_at) / Fold change /veh GIMAP4 (11747438_a_at) / RFU KRT8 (11758183_x_at) / Fold change /veh KRT8 (11758183_x_at) / RFU CNN1 (11734310_a_at) / Fold change /veh CNN1 (11734310_a_at) / RFU VPS37D (11726825_at) / Fold change /veh VPS37D (11726825_at) / RFU C10orf10 (11716522_x_at) / Fold change /veh C10orf10 (11716522_x_at) / RFU KIR2DL2 /// KIR2DL4 /// KIR2DL5A /// KIR2DL5B /// KIR2DS1 /// KIR2DS2 /// KIR2DS3 /// KIR2DS4 /// KIR3DL3 /// KIR3DL3 /// KIR3DS1 (11738374_at) / Fold change /veh KIR2DL2 /// KIR2DL4 /// KIR2DL5A /// KIR2DL5B /// KIR2DS1 /// KIR2DS2 /// KIR2DS3 /// KIR2DS4 /// KIR3DL3 /// KIR3DL3 /// KIR3DS1 (11738374_at) / RFU C1QL1 (11718748_at) / Fold change /veh C1QL1 (11718748_at) / RFU TMPRSS4 (11747572_a_at) / Fold change /veh TMPRSS4 (11747572_a_at) / RFU HAMP (11756126_x_at) / Fold change /veh HAMP (11756126_x_at) / RFU RNFT2 (11725882_a_at) / Fold change /veh RNFT2 (11725882_a_at) / RFU NR4A2 (11747474_a_at) / Fold change /veh NR4A2 (11747474_a_at) / RFU ABCC12 (11746883_a_at) / Fold change /veh ABCC12 (11746883_a_at) / RFU TMEM136 (11760407_x_at) / Fold change /veh TMEM136 (11760407_x_at) / RFU CLDN22 /// WWC2 (11732394_at) / Fold change /veh CLDN22 /// WWC2 (11732394_at) / RFU HLA-DPB1 (11760878_x_at) / Fold change /veh HLA-DPB1 (11760878_x_at) / RFU SPINT1 (11716480_a_at) / Fold change /veh SPINT1 (11716480_a_at) / RFU GAP43 (11754022_s_at) / Fold change /veh GAP43 (11754022_s_at) / RFU A4GNT (11735810_at) / Fold change /veh A4GNT (11735810_at) / RFU PRB3 (11715151_x_at) / Fold change /veh PRB3 (11715151_x_at) / RFU TUBB4B (11761932_at) / Fold change /veh TUBB4B (11761932_at) / RFU CAPN14 (11732068_a_at) / Fold change /veh CAPN14 (11732068_a_at) / RFU TMCC2 (11721928_a_at) / Fold change /veh TMCC2 (11721928_a_at) / RFU IRGQ (11745062_a_at) / Fold change /veh IRGQ (11745062_a_at) / RFU FAM174B (11720279_a_at) / Fold change /veh FAM174B (11720279_a_at) / RFU TMPRSS4 (11748680_a_at) / Fold change /veh TMPRSS4 (11748680_a_at) / RFU FAM212B (11763350_a_at) / Fold change /veh FAM212B (11763350_a_at) / RFU PLEKHG5 (11743358_a_at) / Fold change /veh PLEKHG5 (11743358_a_at) / RFU ZSCAN30 (11745921_a_at) / Fold change /veh ZSCAN30 (11745921_a_at) / RFU CMKLR1 (11741424_a_at) / Fold change /veh CMKLR1 (11741424_a_at) / RFU LOC101060620 /// MAPK8IP1 (11723275_at) / Fold change /veh LOC101060620 /// MAPK8IP1 (11723275_at) / RFU SPTSSB (11747773_x_at) / Fold change /veh SPTSSB (11747773_x_at) / RFU PRSS12 (11739890_at) / Fold change /veh PRSS12 (11739890_at) / RFU BIN1 (11741810_x_at) / Fold change /veh BIN1 (11741810_x_at) / RFU WNT11 (11732464_a_at) / Fold change /veh WNT11 (11732464_a_at) / RFU C10orf10 (11716521_a_at) / Fold change /veh C10orf10 (11716521_a_at) / RFU C5orf56 (11738089_at) / Fold change /veh C5orf56 (11738089_at) / RFU CYB561 (11721691_x_at) / Fold change /veh CYB561 (11721691_x_at) / RFU ANKRD19P (11752326_a_at) / Fold change /veh ANKRD19P (11752326_a_at) / RFU OR2T12 /// OR2T33 /// OR2T8 (11738714_s_at) / Fold change /veh OR2T12 /// OR2T33 /// OR2T8 (11738714_s_at) / RFU VCAN (11748164_a_at) / Fold change /veh VCAN (11748164_a_at) / RFU JSRP1 (11732532_at) / Fold change /veh JSRP1 (11732532_at) / RFU KRTAP10-11 (11738290_x_at) / Fold change /veh KRTAP10-11 (11738290_x_at) / RFU MYO3A (11730013_a_at) / Fold change /veh MYO3A (11730013_a_at) / RFU EBF3 (11725865_a_at) / Fold change /veh EBF3 (11725865_a_at) / RFU CAMK2N1 (11719241_x_at) / Fold change /veh CAMK2N1 (11719241_x_at) / RFU C5orf56 (11738088_a_at) / Fold change /veh C5orf56 (11738088_a_at) / RFU OLFML3 (11715873_a_at) / Fold change /veh OLFML3 (11715873_a_at) / RFU LOC100653217 /// NTM (11731650_a_at) / Fold change /veh LOC100653217 /// NTM (11731650_a_at) / RFU MAPK11 (11762145_a_at) / Fold change /veh MAPK11 (11762145_a_at) / RFU FIZ1 (11724087_x_at) / Fold change /veh FIZ1 (11724087_x_at) / RFU OASL (11726364_x_at) / Fold change /veh OASL (11726364_x_at) / RFU SOX15 (11748057_x_at) / Fold change /veh SOX15 (11748057_x_at) / RFU CD79A (11719716_a_at) / Fold change /veh CD79A (11719716_a_at) / RFU HIST1H1D (11736915_at) / Fold change /veh HIST1H1D (11736915_at) / RFU CASKIN2 (11723855_a_at) / Fold change /veh CASKIN2 (11723855_a_at) / RFU LOC730098 (11760151_x_at) / Fold change /veh LOC730098 (11760151_x_at) / RFU OR4N2 (11742367_at) / Fold change /veh OR4N2 (11742367_at) / RFU PRRT2 (11749266_a_at) / Fold change /veh PRRT2 (11749266_a_at) / RFU SNX32 (11753110_a_at) / Fold change /veh SNX32 (11753110_a_at) / RFU CDHR5 (11726645_a_at) / Fold change /veh CDHR5 (11726645_a_at) / RFU RCAN1 (11760418_a_at) / Fold change /veh RCAN1 (11760418_a_at) / RFU FAM167A (11723789_a_at) / Fold change /veh FAM167A (11723789_a_at) / RFU FAM26E (11764081_at) / Fold change /veh FAM26E (11764081_at) / RFU ISYNA1 (11749810_s_at) / Fold change /veh ISYNA1 (11749810_s_at) / RFU ACY1 (11761880_at) / Fold change /veh ACY1 (11761880_at) / RFU 11764098_at / Fold change /veh 11764098_at / RFU SAMD14 (11745864_x_at) / Fold change /veh SAMD14 (11745864_x_at) / RFU NPB (11741838_a_at) / Fold change /veh NPB (11741838_a_at) / RFU TMPRSS6 (11731388_a_at) / Fold change /veh TMPRSS6 (11731388_a_at) / RFU KRTAP10-2 (11738614_at) / Fold change /veh KRTAP10-2 (11738614_at) / RFU ARHGAP8 /// PRR5-ARHGAP8 (11727945_x_at) / Fold change /veh ARHGAP8 /// PRR5-ARHGAP8 (11727945_x_at) / RFU KRTAP5-7 /// NADSYN1 (11734609_at) / Fold change /veh KRTAP5-7 /// NADSYN1 (11734609_at) / RFU RASL12 (11751679_a_at) / Fold change /veh RASL12 (11751679_a_at) / RFU CDKN2B (11736163_a_at) / Fold change /veh CDKN2B (11736163_a_at) / RFU PRF1 (11729649_at) / Fold change /veh PRF1 (11729649_at) / RFU, ZNF638 /// ZNF638-IT1 / Fold change vs veh, ZNF638 /// ZNF638-IT1 / RFU, PANK3 / Fold change vs veh, PANK3 / RFU, SH3YL1 / Fold change vs veh, SH3YL1 / RFU, ZEB2 / Fold change vs veh, ZEB2 / RFU, NRIP1 / Fold change vs veh, NRIP1 / RFU, PTTG1IP / Fold change vs veh, PTTG1IP / RFU, CAPN2 / Fold change vs veh, CAPN2 / RFU, MED14 / Fold change vs veh, MED14 / RFU, SNORA58 / Fold change vs veh, SNORA58 / RFU, C1orf63 / Fold change vs veh, C1orf63 / RFU, LRRFIP1 / Fold change vs veh, LRRFIP1 / RFU, NDUFAF7 / Fold change vs veh, NDUFAF7 / RFU, SLC12A2 / Fold change vs veh, SLC12A2 / RFU, IBTK / Fold change vs veh, IBTK / RFU, ESF1 / Fold change vs veh, ESF1 / Fold change vs veh, TMEM50B / RFU, TAOK1 / Fold change vs veh, TAOK1 / RFU, ACBD3 / Fold change vs veh, ACBD3 / RFU, TMA16 / Fold change vs veh, TMA16 / RFU, RWDD3 / Fold change vs veh, RWDD3 / RFU, BCAT1 / Fold change vs veh, BCAT1 / RFU, EDEM3 / Fold change vs veh, EDEM3 / RFU, TMEM33 / Fold change vs veh, TMEM33 / RFU, WDR75 / Fold change vs veh, WDR75 / RFU, AHCTF1 / Fold change vs veh, AHCTF1 / RFU, TFRC / Fold change vs veh, TFRC / RFU, ZDHHC17 / Fold change vs veh, ZDHHC17 / RFU, NOM1 / Fold change vs veh, NOM1 / RFU, ARL8B / Fold change vs veh, ARL8B / RFU, ZBTB11 / Fold change vs veh, ZBTB11 / RFU, TAMM41 / Fold change vs veh, TAMM41 / RFU, KIAA1704 /// LOC100996395 / Fold change vs veh, KIAA1704 /// LOC100996395 / RFU, ING1 / Fold change vs veh, ING1 / RFU, TRMT61B / Fold change vs veh, TRMT61B / RFU, FUBP3 / Fold change vs veh, FUBP3 / RFU, TP53 / Fold change vs veh, TP53 / RFU, TNKS2 / Fold change vs veh, TNKS2 / RFU, ZFP14 / Fold change vs veh, ZFP14 / RFU, ACTR2 / Fold change vs veh, ACTR2 / RFU, PPP3R1 / Fold change vs veh, PPP3R1 / RFU, PIK3R1 / Fold change vs veh, PIK3R1 / RFU, HNRNPA1 / Fold change vs veh, HNRNPA1 / RFU, RNF170 / Fold change vs veh, RNF170 / RFU, ZNF28 / Fold change vs veh, ZNF28 / RFU, RNGTT / Fold change vs veh, RNGTT / RFU, OGT / Fold change vs veh, OGT / RFU, BRD1 / Fold change vs veh, BRD1 / RFU, MARS / Fold change vs veh, MARS / RFU, ZNF655 / Fold change vs veh, ZNF655 / RFU, FAHD1 / Fold change vs veh, FAHD1 / RFU, BDP1 / Fold change vs veh, BDP1 / RFU, LRRCC1 / Fold change vs veh, LRRCC1 / RFU, ARID1A / Fold change vs veh, ARID1A / RFU, ZNF146 / Fold change vs veh, ZNF146 / RFU, ZNF330 / Fold change vs veh, ZNF330 / RFU, GPN3 / Fold change vs veh, GPN3 / RFU, C9orf123 / Fold change vs veh, C9orf123 / RFU, N4BP2L2 / Fold change vs veh, N4BP2L2 / RFU, ARFIP1 / Fold change vs veh, ARFIP1 / RFU, FAM179B / Fold change vs veh, FAM179B / RFU, BCL10 / Fold change vs veh, BCL10 / RFU, UHRF1BP1L / Fold change vs veh, UHRF1BP1L / RFU, BET1 / Fold change vs veh, BET1 / RFU, CNOT2 / Fold change vs veh, CNOT2 / RFU, ZNF268 / Fold change vs veh, ZNF268 / Fold change vs veh, ZNF507 / RFU, DGCR2 / Fold change vs veh, DGCR2 / RFU, WDSUB1 / Fold change vs veh, WDSUB1 / Fold change vs veh, HSP90B1 /// MIR3652 / RFU, ADSS / Fold change vs veh, ADSS / RFU, GK / Fold change vs veh, GK / RFU, ZNF148 / Fold change vs veh, ZNF148 / RFU, TAF9 / Fold change vs veh, TAF9 / RFU, SLC1A5 / Fold change vs veh, SLC1A5 / RFU, SLMO2 / Fold change vs veh, SLMO2 / RFU, ABCC4 / Fold change vs veh, ABCC4 / RFU, LOC101060439 /// RAP1B / Fold change vs veh, LOC101060439 /// RAP1B / RFU, RFX7 / Fold change vs veh, RFX7 / RFU, GTPBP10 / Fold change vs veh, GTPBP10 / RFU, CNEP1R1 / Fold change vs veh, CNEP1R1 / RFU, BIVM-ERCC5 /// ERCC5 / Fold change vs veh, BIVM-ERCC5 /// ERCC5 / RFU, ILF3 / Fold change vs veh, ILF3 / RFU 11762660_at / Fold change /veh 11762660_at / RFU VCAN (11757783_s_at) / Fold change /veh VCAN (11757783_s_at) / RFU DDX43 (11728927_at) / Fold change /veh DDX43 (11728927_at) / RFU KRT8 (11758188_x_at) / Fold change /veh KRT8 (11758188_x_at) / RFU NKD1 (11759106_at) / Fold change /veh NKD1 (11759106_at) / RFU SRD5A1 (11742802_a_at) / Fold change /veh SRD5A1 (11742802_a_at) / RFU TPSAB1 /// TPSB2 (11721975_s_at) / Fold change /veh TPSAB1 /// TPSB2 (11721975_s_at) / RFU GSTM3 (11746129_a_at) / Fold change /veh GSTM3 (11746129_a_at) / RFU IL23R (11737362_x_at) / Fold change /veh IL23R (11737362_x_at) / RFU TMEM51 (11727254_a_at) / Fold change /veh TMEM51 (11727254_a_at) / RFU PIWIL2 (11732686_x_at) / Fold change /veh PIWIL2 (11732686_x_at) / RFU ORM1 (11744905_x_at) / Fold change /veh ORM1 (11744905_x_at) / RFU CCDC152 (11743942_at) / Fold change /veh CCDC152 (11743942_at) / RFU ECM1 (11717891_a_at) / Fold change /veh ECM1 (11717891_a_at) / RFU IL23R (11748794_a_at) / Fold change /veh IL23R (11748794_a_at) / RFU TNFAIP8L3 (11732012_x_at) / Fold change /veh TNFAIP8L3 (11732012_x_at) / RFU MBOAT4 (11741988_at) / Fold change /veh MBOAT4 (11741988_at) / RFU 11764193_at / Fold change /veh 11764193_at / RFU TMEM53 (11763286_at) / Fold change /veh TMEM53 (11763286_at) / RFU MAGEB2 (11727129_at) / Fold change /veh MAGEB2 (11727129_at) / RFU TMEM200A (11744735_a_at) / Fold change /veh TMEM200A (11744735_a_at) / RFU CCDC152 (11751479_a_at) / Fold change /veh CCDC152 (11751479_a_at) / RFU FAM211A (11726209_a_at) / Fold change /veh FAM211A (11726209_a_at) / RFU RGS16 (11746705_a_at) / Fold change /veh RGS16 (11746705_a_at) / RFU VCAN (11755009_s_at) / Fold change /veh VCAN (11755009_s_at) / RFU RHOB (11743442_s_at) / Fold change /veh RHOB (11743442_s_at) / RFU RGS16 (11720943_a_at) / Fold change /veh RGS16 (11720943_a_at) / RFU RGS16 (11720944_at) / Fold change /veh RGS16 (11720944_at) / RFU, VPS4B / Fold change vs veh, VPS4B / RFU, CREB1 / Fold change vs veh, CREB1 / RFU, DNAJC13 / Fold change vs veh, DNAJC13 / RFU, GNAQ / Fold change vs veh, GNAQ / RFU, CDK5R1 / Fold change vs veh, CDK5R1 / RFU, ZRANB3 / Fold change vs veh, ZRANB3 / RFU, CUL4A / Fold change vs veh, CUL4A / RFU, CCNY / Fold change vs veh, CCNY / RFU, UFL1 / Fold change vs veh, UFL1 / RFU, COG3 / Fold change vs veh, COG3 / RFU, DIAPH2 / Fold change vs veh, DIAPH2 / RFU, SKA2 / Fold change vs veh, SKA2 / RFU, AFF3 / Fold change vs veh, AFF3 / RFU, LMF1 / Fold change vs veh, LMF1 / RFU, IPO11 / Fold change vs veh, IPO11 / RFU, DFFB / Fold change vs veh, DFFB / RFU, FOXP1 / Fold change vs veh, FOXP1 / RFU, CARD8 / Fold change vs veh, CARD8 / RFU, STRN3 / Fold change vs veh, STRN3 / RFU, ADK / Fold change vs veh, ADK / RFU, RASSF2 / Fold change vs veh, RASSF2 / RFU, WIPF1 / Fold change vs veh, WIPF1 / RFU, LARP1B / Fold change vs veh, LARP1B / RFU, RASA1 / Fold change vs veh, RASA1 / RFU, RB1 / Fold change vs veh, RB1 / RFU, PPFIA1 / Fold change vs veh, PPFIA1 / RFU, MAT2A / Fold change vs veh, MAT2A / RFU, CCT5 / Fold change vs veh, CCT5 / RFU, WDR92 / Fold change vs veh, WDR92 / RFU, CUX1 / Fold change vs veh, CUX1 / RFU, TTC7A / Fold change vs veh, TTC7A / RFU, TMEM135 / Fold change vs veh, TMEM135 / RFU, DEPTOR / Fold change vs veh, DEPTOR / RFU, CPM / Fold change vs veh, CPM / RFU, DNAJB6 / Fold change vs veh, DNAJB6 / RFU, CACNA2D3 / Fold change vs veh, CACNA2D3 / RFU, DTX4 / Fold change vs veh, DTX4 / RFU, TFCP2 / Fold change vs veh, TFCP2 / RFU, GMCL1 /// GMCL1P1 / Fold change vs veh, GMCL1 /// GMCL1P1 / RFU, AEBP2 / Fold change vs veh, AEBP2 / RFU, SNHG1 /// SNORD22 /// SNORD25 /// SNORD26 /// SNORD27 /// SNORD28 /// SNORD29 /// SNORD31 / Fold change vs veh, SNHG1 /// SNORD22 /// SNORD25 /// SNORD26 /// SNORD27 /// SNORD28 /// SNORD29 /// SNORD31 / Fold change (Aza/veh), C12orf56 (ProbeSet 11735607_a_at) / Fold change (ACY-1035/veh), C12orf56 (ProbeSet 11735607_a_at) / Fold change (Aza/veh), FGFR1OP (ProbeSet 11751329_s_at) / Fold change (ACY-1035/veh), FGFR1OP (ProbeSet 11751329_s_at) / Fold change (Aza/veh), VPS36 (ProbeSet 11739960_a_at) / Fold change (ACY-1035/veh), VPS36 (ProbeSet 11739960_a_at) / RFU SYPL1 (11715823_x_at) / Fold change /veh SYPL1 (11715823_x_at) / RFU IGFBP7 (11715501_s_at) / Fold change /veh IGFBP7 (11715501_s_at) / RFU REEP3 (11722064_at) / Fold change /veh REEP3 (11722064_at) / RFU IGLL1 (11728026_x_at) / Fold change /veh IGLL1 (11728026_x_at): dose or concentration left out as unconfirmed
# Details: MV-4-11 cells, 48 hours
smiles,measurement,value
Nc1ccc(-c2cccs2)cc1NC(=O)c1ccc2c(c1)cc(C1CC1)n2CCN1CCOCC1 [ACY-1035],RFU HLA-DPB1 (11760878_x_at),21.61 RFU
